Holding throughout (format): in vivo, human
The subject of series [1] is male MS patients with erectile dysfunction. Nature of the series: Sexual function in male MS patients with erectile dysfunction. Conditions: Example Six. The source says: Two male MS patients, a person and a person, experienced decreased libido, decreased penile sensation, and erectile dysfunction. […] These improvements in sexual function have persisted while continuing on the treatment. […] Their ability to achieve a full erection numerous times following repeated ejaculations was restored the same day that they resumed the treatment.

For series [2], the system named is multiple sclerosis (MS) patients. Nature of the series: Treatment of multiple sclerosis patients via transdermal patch. The conditions noted are these: Example Three, four MS patients (2 female, 2 male), 0.2 mcg transdermal patch one day, two days off, repeated.
For series [3], the system named is fibromyalgia patient. The series is described as follows: Treatment of fibromyalgia patient via transdermal patch. Conditions: Example Five. An excerpt: (§1) Accordingly, material suitable for transdermal application can be prepared using a 1:1000 dilution of methyl 4-imidazolecarboxylate CAS number 17325-26-7, available from Sigma-Aldrich Corporation), combined with a pluronic lecithin organogel transdermal penetration enhancing vehicle, with hydrochloric acid being added to maintain the pH of the solution that or below 3. The resultant mixture may be dried and deposited on or applied to a suitable adhesive backing to form a transdermal patch, covered with quick release paper or other layer for protection prior to use.
A person who has been suffering from fibromyalgia for 10 years was treated in accordance with the method of the present invention. […] The patient has reported only two incidences of increased fatigue, which lasted only one day per incidence, and these incidences were preceded by very stressful life events.

Series [4] has as its system multiple sclerosis (MS) patients. The series is described as follows: Treatment of multiple sclerosis patients via transdermal patch. Conditions: for outcome on MS symptoms with cyclic dosing schedule: repeated.
Description: as §1
The following illustrative examples relate to actual practice of the invention described above in the treatment of multiple sclerosis.
A person who had been suffering from multiple sclerosis (MS) for 51 years was treated in accordance with the method of the present invention. The patient suffered from debilitating intention tremors in their hands, poor balance, garbled speech, right foot tingling and right leg weakness, left foot tingling and weakness. Within 60 minutes of applying the first dose of 0.125 mcg methyl 4-imidazolecarboxylate via transdermal patch application, the intention tremors were alleviated, but noted some waxing and waning of other symptoms throughout the first day of treatment. […] After the third consecutive day of treatment, the patient had no symptoms of MS and they were able to remain free of symptoms for the next 36 hours without applying the treatment of the present invention. After 36 hours of not administering the treatment, they reported that their MS symptoms were returning, they then applied 0.125 mcg methyl 4-imidazolecarboxylate via transdermal patch and their MS symptoms were alleviated within 30 minutes of applying the treatment. They administered 0.125 mcg methyl 4-imidazolecarboxylate per day for next 2 consecutive days and was again able to remain free of all of the MS symptoms while wearing the transdermal patch containing the treatment dose and then remained free of symptoms for the following 2 days not administering the treatment.
A person who has been suffering from multiple sclerosis (MS) for 21 years was treated in accordance with the method of the present invention. The patient suffered from left foot tingling and numbness, left hand tingling and numbness, left leg weakness, slurred speech, cognitive impairment, fatigue, facial/jaw pain, and heaviness in limbs. […] The patient remained free of all MS symptoms with the administration of 0.15 mcg methyl 4-imidazolecarboxylate per day for the next two consecutive days. The patient was able to remain free of MS symptoms for 36 hours following the two consecutive days of application of present invention without use of treatment. After 36 hours of not using the present invention treatment, the patient experienced left foot tingling. The patient then applied 0.15 mcg methyl 4-imidazolecarboxylate per day via transdermal patch for two consecutive days and all MS symptoms alleviated. The patient was able to remain free of all MS symptoms for the next 4 days without applying the present invention treatment. […] The following 5 days the patient remained free of all MS symptoms without administering treatment of present invention.
Each patient has continued to maintain such improvements in their symptoms of MS by applying 0.2 mcg methyl 4-imidazolecarboxylate via transdermal patch for one day followed by two consecutive days without administering treatment and then repeating such dosing schedule.

Series [5] concerns patients. The series is described as follows: Transdermal dosage range and regimen observations in patients. As to the method: As will be described in the following examples, dosages in the range from about 0.1 mcg to about 0.2 mcg per day have been found generally preferable, with some variation on a patient by patient basis. […] While the mechanism behind this is not fully understood, it is believed that the effectiveness of the periodic regimen, with a resting period of about 48 hours between applications, may be due to an associated half life period (within the body of the patient) of the material or an agent that is produced by the material.

In series [6] the test system is patient with major clinical depression. Nature of the series: Treatment of patient with major clinical depression via transdermal patch. Conditions: Example Seven. The protocol: A person with a family history of depression and has a personal history of major clinical depression. Hospitalized in 1975 and again in 1990 with major episodes of depression including extreme suicidal ideations. Numerous medications were tried to help stabilize their condition. Since 1990 they have been taking 25 mg to 75 mg of nortriptyline to manage their depression and reports having to increase the dose to has high as 100 mg during stressful life events.
The patient reported suffering from the following symptoms despite taking nortriptyline:
They also reported very vivid dreams and they were able to recall the details of their dreams easily. […] Their constipation and dry mouth have resolved as well. They also have reported that their hair is regaining its original pigment and that their eyebrows are coming in darker and thicker resembling their younger years.

The mark [7] stands for this setting: 0.2 mcg transdermal patch one day on, two days off.

Where only a bound is given, the exact number is not on record here.

With `COC(=O)c1cnc[nH]1` [methyl 4-imidazolecarboxylate], the “effect of stopping the treatment for one week” value in series [1] (patient, restored the same day treatment resumed) was “decrease in libido and inability in achieving a full erection”. Moreover, the “time to achieve a full erection after first ejaculation” value in series [1] (two male MS patients, 0.2 mcg) lay in the range of 1 to 3 min. Further, the “patient-reported sexual function within three days of first administration” value in series [1] (two male MS patients, 0.2 mcg (entry two)) is recorded as “increased libido, full erections, increased penile sensation”. Moreover, in series [2], the “patient-reported change in MS symptoms (bladder function, fatigue, tingling and numbness, balance, cognition and memory, walking, sleep)” value is “improvement in their MS symptoms”. Moreover, in series [3] (setting [7]), the “maintained outcome with cyclic dosing schedule” value was “remained free of pain, and improved mental clarity”. Moreover, the “incidences of increased fatigue during treatment” value in series [3] (each lasting one day, preceded by very stressful life events) is given as “two”. The “patient-reported effect within hours of first dose” value in series [3] (person with fibromyalgia, first dose 0.2 mcg) was “decreased pain, decreased fatigue and improved mental clarity”. Besides, the “MS symptoms by the second day of treatment” value in series [4] (Example One, 0.125 mcg per day, transdermal patch) is listed as “All MS symptoms were alleviated”. For the same compound, the “time to alleviation of returned MS symptoms after re-applying treatment” value in series [4] (Example One, 0.125 mcg transdermal patch after 36 hours without treatment) is not above 30 min. In addition, the “outcome on MS symptoms with cyclic dosing schedule” value in series [4] (Example One, 0.2 mcg one day followed by 2 consecutive days without treatment) is reported as “successfully alleviated all of the MS symptoms”; in series [4] (Example Two, 0.2 mcg transdermal patch one day, 2 consecutive days without treatment) it was “continued to remain free of all MS symptoms”. The “time to alleviation of intention tremors after first dose” value in series [4] (Example One, MS patient, first dose 0.125 mcg, transdermal patch) is not above 60 min. For the same compound, in series [4] (Example One, after re-application and 2 further consecutive days of 0.125 mcg per day), the “time free of symptoms not administering the treatment” value is 2 days. Also, the “time free of symptoms without applying the treatment” value in series [4] (Example One, after third consecutive day of 0.125 mcg treatment) was 36 h. Moreover, the “effect on returned left foot tingling after single application” value in series [4] (Example Two, 0.15 mcg transdermal patch on fifth day without treatment) was “symptoms resolved immediately”. The “time to alleviation of all MS symptoms after first dose” value in series [4] (Example Two, MS patient, first dose 0.15 mcg, transdermal patch) is not above 30 min. Also, the “time free of all MS symptoms without applying treatment” value in series [4] (Example Two, after second course of 0.15 mcg per day for two consecutive days) is 4 days. Also, the “time free of MS symptoms without use of treatment” value in series [4] (Example Two, following first dose and two consecutive days of 0.15 mcg per day) was 36 h. In addition, in series [4] (Example Two, following single 0.15 mcg application), the “time free of all MS symptoms without administering treatment” value is 5 days. Also, the “effectiveness of periodic regimen” value in series [5] (approximately 0.2 mcg once every three days) is “especially effective for the majority of patients”. Moreover, the “adverse effect at high dosages” value in series [5] (transdermal, dosages above approximately 3.0 mcg per day) is “negative cognitive effects, in a form of mental haziness or sleepiness”. In series [5] (transdermal, dosages below about 0.01 mcg per day), the “effect observed at low dosages” value was “negligible effect”. The “symptoms of depression while continuing on the treatment” value in series [6] (setting [7]) was “remained free of all symptoms of depression”. Besides, the “patient-reported effect the first day of treatment” value in series [6] (person, 0.2 mcg) is “increased energy”.
On to `CNCCC=C1c2ccccc2CCc2ccccc21` [nortriptyline, reference compound], for which the patient-reported side effects result in series [6] (25 mg to 75 mg (up to 100 mg) nortriptyline since 1990) was “dry mouth and constipation”.

(Values after US7666893B2, “Method for treatment of neurodegenerative disorders” (MedDEV Inc., priority 2006, dated 2010).)
